Consider 24 molecules from US9890155B2, “Aza-oxo-indoles for the treatment and prophylaxis of respiratory syncytial virus infection” (Hoffmann-La Roche Inc., priority 2013, dated 2018).

pEC50: −log10 of the molar value.

One test deals with RSV Long strain. The test is described as follows: Viral Cytopathic Effect (CPE) Assay. It is filed as cell-based. To be noted: human respiratory syncytial virus, 144 h, cell viability after 6 days (Cell Counting kit-8). The protocol:
EC50: the concentration of a compound where 50% of its maximal protection effect against viral induced CPE is observed
LongStrain: an A subtype RSV strain obtained from ATCC with catalog number VR-26
To measure anti-RSV activity of compounds, 96-well plates are seeded with 6×10^3 cells per well in Dulbecco's modified Eagle's medium (DMEM) containing 10% fetal bovine serum (FBS). Cells are infected the next day with sufficient RSV Long strain (ATCC) to produce an approximately 80-90% cytopathic effect after 6 days, in the presence of serial half-log diluted compound in a total volume of 200 μL per well. The viability of cells is assessed after 6 days using Cell Counting kit-8 (Dojindo Molecular Technologies). The absorbance at 450 nm and referenced at 630 nm is measured to determine 50% effective concentration (EC50).
Regarding `COc1ccc(-n2c(CN3C(=O)C4(CC4)c4ccncc43)nc3cc(Cl)ccc32)cn1` [Example 4-9, 1′-{[5-Chloro-1-(6-methoxypyridin-3-yl)-1H-benzimidazol-2-yl]methyl}spiro[cyclopropane-1,3′-pyrrolo[2,3-c]pyridin]-2′(1′H)-one], the pEC50 was 7.96.
The same measure, in the same setting: the result for `CCOC(=O)Cc1ccc(-n2c(CN3C(=O)C4(CC4)c4ccncc43)nc3cc(Cl)ccc32)cc1` [Example 3, Ethyl(4-{5-chloro-2-[(2′-oxospiro[cyclopropane-1,3′-pyrrolo[2,3-c]pyridin]-1′(2′H)-yl)methyl]-1H-benzimidazol-1-yl}phenyl)acetate] reads 7.85; that for `COC(=O)c1cccc(-n2c(CN3C(=O)C4(CC4)c4ccncc43)nc3cc(Cl)ccc32)c1` [Example 4-6, Methyl 3-{5-chloro-2-[(2′-oxospiro[cyclopropane-1,3′-pyrrolo[2,3-c]pyridin]-1′(2′H)-yl)methyl]-1H-benzimidazol-1-yl}benzoate], 7.80; that for `Cc1cc(-n2c(CN3C(=O)C4(CC4)c4ccncc43)nc3cc(Cl)ccc32)cc(S(C)(=O)=O)c1` [Example 5-3, 1′-({5-Chloro-1-[3-methyl-5-(methylsulfonyl)phenyl]-1H-benzimidazol-2-yl}methyl)spiro[cyclopropane-1,3′-pyrrolo[2,3-c]pyridin]-2′(1′H)-one], 7.72.
As for `CCS(=O)(=O)c1ccnc(-n2c(CN3C(=O)C4(CC4)c4ccncc43)nc3cc(Cl)ccc32)c1` [Example 2-2, 1′-({5-Chloro-1-[4-(ethylsulfonyl)pyridin-2-yl]-1H-benzimidazol-2-yl}methyl)spiro[cyclopropane-1,3′-pyrrolo[2,3-c]pyridin]-2′(1′H)-one], the negative logarithm of the EC50 (pEC50) is 7.68.
Turning to `O=C(O)c1cccc(-n2c(CN3C(=O)C4(CC4)c4ccncc43)nc3cc(Cl)ccc32)c1` [Example 6-2, 3-{5-Chloro-2-[(2′-oxospiro[cyclopropane-1,3′-pyrrolo[2,3-c]pyridin]-1′(2′H)-yl)methyl]-1H-benzimidazol-1-yl}benzoic acid], the pEC50 was 6.29.
Still for that read-out and setting: under `N#Cc1cccc(-n2c(CN3C(=O)C4(CC4)c4ccncc43)nc3cc(Cl)ccc32)c1` [Example 4-7, 3-{5-Chloro-2-[(2′-oxospiro[cyclopropane-1,3′-pyrrolo[2,3-c]pyridin]-1′(2′H)-yl)methyl]-1H-benzimidazol-1-yl}benzonitrile] stands 8.15; under `NC(=O)c1ccc(-n2c(CN3C(=O)C4(CC4)c4ccncc43)nc3cc(Cl)ccc32)cc1` [Example 7, 4-{5-Chloro-2-[(2′-oxospiro[cyclopropane-1,3′-pyrrolo[2,3-c]pyridin]-1′(2′H)-yl)methyl]-1H-benzimidazol-1-yl}benzamide], 7.89.
The molecule `CS(=O)(=O)c1cccc(-c2c(CN3C(=O)C4(CC4)c4ccncc43)[nH]c3cc(Cl)ccc23)c1` [Example 9-2, 1′-({6-Chloro-3-[3-(methylsulfonyl)phenyl]-1H-indol-2-yl}methyl)spiro[cyclopropane-1,3′-pyrrolo[2,3-c]pyridin]-2′(1′H)-one] gave a negative logarithm of the EC50 (pEC50) of 7.54.
On the same count and under the same terms, under `O=C1N(Cc2nc3cc(Cl)ccc3n2-c2ccccc2)c2cnccc2C12CC2` [Example 4-1, 1′-[(5-Chloro-1-phenyl-1H-benzimidazol-2-yl)methyl]spiro[cyclopropane-1,3′-pyrrolo[2,3-c]pyridin]-2′(1′H)-one] stands 7.77.
Same read-out and setting: under `CCOC(=O)c1ccc(-n2c(CN3C(=O)C4(CC4)c4ccncc43)nc3cc(Cl)ccc32)cc1` [Example 4-2, Ethyl 4-{5-chloro-2-[(2′-oxospiro[cyclopropane-1,3′-pyrrolo[2,3-c]pyridin]-1′(2′H)-yl)methyl]-1H-benzimidazol-1-yl}benzoate] stands 8.22; under `O=C(O)c1ccc(-n2c(CN3C(=O)C4(CC4)c4ccncc43)nc3cc(Cl)ccc32)cc1` [Example 6-1, 4-{5-Chloro-2-[(2′-oxospiro[cyclopropane-1,3′-pyrrolo[2,3-c]pyridin]-1′(2′H)-yl)methyl]-1H-benzimidazol-1-yl}benzoic acid], 8.22; under `CS(=O)(=O)c1cccc(-n2c(CN3C(=O)C4(CC4)c4ccncc43)nc3cc(Cl)ccc32)n1` [Example 5-2, 1′-({5-Chloro-1-[6-(methylsulfonyl)pyridin-2-yl]-1H-benzimidazol-2-yl}methyl)spiro[cyclopropane-1,3′-pyrrolo[2,3-c]pyridin]-2′(1′H)-one], 8.30.
Still for that read-out and setting: the result for `CS(=O)(=O)c1ccc(-n2c(CN3C(=O)C4(CC4)c4ccncc43)nc3cc(Cl)ccc32)cc1` [Example 4-5, 1′-({5-Chloro-1-[4-(methylsulfonyl)phenyl]-1H-benzimidazol-2-yl}methyl)spiro[cyclopropane-1,3′-pyrrolo[2,3-c]pyridin]-2′(1′H)-one] reads 8.30.
As for `N#Cc1ccc(-n2c(CN3C(=O)C4(CC4)c4ccncc43)nc3cc(Cl)ccc32)cn1` [Example 1, 5-{5-Chloro-2-[(2′-oxospiro[cyclopropane-1,3′-pyrrolo[2,3-c]pyridin]-1′(2′H)-yl)methyl]-1H-benzimidazol-1-yl}pyridine-2-carbonitrile], the pEC50 was 9.15. This pEC50 is 0.85 log units higher than that of the molecule before.
On the same count and under the same terms, the result for `CC(=O)c1cccc(-n2c(CN3C(=O)C4(CC4)c4ccncc43)nc3cc(Cl)ccc32)c1` [Example 4-8, 1′-{[1-(3-Acetylphenyl)-5-chloro-1H-benzimidazol-2-yl]methyl}spiro[cyclopropane-1,3′-pyrrolo[2,3-c]pyridin]-2′(1′H)-one] reads 7.72.
`O=C(O)c1ccc(-n2c(CN3C(=O)C4(CC4)c4ccc(F)cc43)nc3cc(Cl)ccc32)cc1` [Example 6-3, 4-{5-Chloro-2-[(6′-fluoro-2′-oxospiro[cyclopropane-1,3′-indol]-1′(2′H)-yl)methyl]-1H-benzimidazol-1-yl}benzoic acid] gave a negative-log EC50 (pEC50) of 7.30.
Still for that read-out and setting: under `CS(=O)(=O)c1ccc(-c2c(CN3C(=O)C4(CC4)c4ccncc43)[nH]c3cc(Cl)ccc23)cc1` [Example 9-1, 1′-({6-Chloro-3-[4-(methylsulfonyl)phenyl]-1H-indol-2-yl}methyl)spiro[cyclopropane-1,3′-pyrrolo[2,3-c]pyridin]-2′(1′H)-one] stands 7.60; under `CS(=O)(=O)c1ccc(-n2c(CN3C(=O)C4(CC4)c4ccncc43)nc3cc(Cl)ccc32)cn1` [Example 4-3, 1′-({5-Chloro-1-[6-(methylsulfonyl)pyridin-3-yl]-1H-benzimidazol-2-yl}methyl)spiro[cyclopropane-1,3′-pyrrolo[2,3-c]pyridin]-2′(1′H)-one], 8.40.
`CS(=O)(=O)c1cccc(-n2c(CN3C(=O)C4(CC4)c4ccncc43)nc3cc(Cl)ccc32)c1` [Example 4-4, 1′-({5-chloro-1-[3-(methylsulfonyl)phenyl]-1H-benzimidazol-2-yl}methyl)spiro[cyclopropane-1,3′-pyrrolo[2,3-c]pyridin]-2′(1′H)-one] had a pEC50 of 8.10.
`O=C1N(Cc2nc3cc(Cl)ccc3n2-c2ccc(O)nc2)c2cnccc2C12CC2` [Example 8, 1′-{[5-Chloro-1-(6-hydroxypyridin-3-yl)-1H-benzimidazol-2-yl]methyl}spiro[cyclopropane-1,3′-pyrrolo[2,3-c]pyridin]-2′(1′H)-one] had a pEC50 of 7.74.
For `CS(=O)(=O)c1cc(-n2c(CN3C(=O)C4(CC4)c4ccncc43)nc3cc(Cl)ccc32)ccn1` [Example 2-1, 1′-({5-Chloro-1-[2-(methylsulfonyl)pyridin-4-yl]-1H-benzimidazol-2-yl}methyl)spiro[cyclopropane-1,3′-pyrrolo[2,3-c]pyridin]-2′(1′H)-one], the negative-log EC50 (pEC50) was 7.19.
`CS(=O)(=O)c1cncc(-n2c(CN3C(=O)C4(CC4)c4ccncc43)nc3cc(Cl)ccc32)c1` [Example 5-1, 1′-({5-Chloro-1-[5-(methylsulfonyl)pyridin-3-yl]-1H-benzimidazol-2-yl}methyl)spiro[cyclopropane-1,3′-pyrrolo[2,3-c]pyridin]-2′(1H)-one] gave a negative-log EC50 (pEC50) of 8.30. Against the preceding molecule, the pEC50 is 1.11 log units higher.

Another test relates to RSV infection.
Assay: not given
The settings on record: intramuscularly 15 mg/kg once a month for the RSV season, selected infants; cited from earlier work.
Consider “palivizumab: a humanized monoclonal antibody against RSV fusion (F) protein approved for prophylaxis in high-risk infants”, for which the “reduction of hospitalization rate caused by RSV infection” value is given as 45-55%.
